SMILES strings stand for the structures.

In data set [1] the target is Bromodomain-containing protein 4 (Homo sapiens, UniProt O60885, Y390A). The experiment in a line: Displacement of Alexa Fluor 647-labeled ligand from BRD4 BD1 Y390A mutant (1 to 477 residue) (unknown origin) measured after 30 mins by TR-FRET assay. (Time-resolved FRET reads energy transfer from a long-lived donor to a nearby acceptor.)
Data set [2] can be described thus: Permeability of the compound by artificial lipid membrane-based method. The class given is ADME. The conditions noted are these: not told; read-out: permeability.
Data set [3] addresses T1, ATPase family AAA domain-containing protein 2B (Homo sapiens, UniProt Q9ULI0).
T1 sequence (Q9ULI0 whole entry): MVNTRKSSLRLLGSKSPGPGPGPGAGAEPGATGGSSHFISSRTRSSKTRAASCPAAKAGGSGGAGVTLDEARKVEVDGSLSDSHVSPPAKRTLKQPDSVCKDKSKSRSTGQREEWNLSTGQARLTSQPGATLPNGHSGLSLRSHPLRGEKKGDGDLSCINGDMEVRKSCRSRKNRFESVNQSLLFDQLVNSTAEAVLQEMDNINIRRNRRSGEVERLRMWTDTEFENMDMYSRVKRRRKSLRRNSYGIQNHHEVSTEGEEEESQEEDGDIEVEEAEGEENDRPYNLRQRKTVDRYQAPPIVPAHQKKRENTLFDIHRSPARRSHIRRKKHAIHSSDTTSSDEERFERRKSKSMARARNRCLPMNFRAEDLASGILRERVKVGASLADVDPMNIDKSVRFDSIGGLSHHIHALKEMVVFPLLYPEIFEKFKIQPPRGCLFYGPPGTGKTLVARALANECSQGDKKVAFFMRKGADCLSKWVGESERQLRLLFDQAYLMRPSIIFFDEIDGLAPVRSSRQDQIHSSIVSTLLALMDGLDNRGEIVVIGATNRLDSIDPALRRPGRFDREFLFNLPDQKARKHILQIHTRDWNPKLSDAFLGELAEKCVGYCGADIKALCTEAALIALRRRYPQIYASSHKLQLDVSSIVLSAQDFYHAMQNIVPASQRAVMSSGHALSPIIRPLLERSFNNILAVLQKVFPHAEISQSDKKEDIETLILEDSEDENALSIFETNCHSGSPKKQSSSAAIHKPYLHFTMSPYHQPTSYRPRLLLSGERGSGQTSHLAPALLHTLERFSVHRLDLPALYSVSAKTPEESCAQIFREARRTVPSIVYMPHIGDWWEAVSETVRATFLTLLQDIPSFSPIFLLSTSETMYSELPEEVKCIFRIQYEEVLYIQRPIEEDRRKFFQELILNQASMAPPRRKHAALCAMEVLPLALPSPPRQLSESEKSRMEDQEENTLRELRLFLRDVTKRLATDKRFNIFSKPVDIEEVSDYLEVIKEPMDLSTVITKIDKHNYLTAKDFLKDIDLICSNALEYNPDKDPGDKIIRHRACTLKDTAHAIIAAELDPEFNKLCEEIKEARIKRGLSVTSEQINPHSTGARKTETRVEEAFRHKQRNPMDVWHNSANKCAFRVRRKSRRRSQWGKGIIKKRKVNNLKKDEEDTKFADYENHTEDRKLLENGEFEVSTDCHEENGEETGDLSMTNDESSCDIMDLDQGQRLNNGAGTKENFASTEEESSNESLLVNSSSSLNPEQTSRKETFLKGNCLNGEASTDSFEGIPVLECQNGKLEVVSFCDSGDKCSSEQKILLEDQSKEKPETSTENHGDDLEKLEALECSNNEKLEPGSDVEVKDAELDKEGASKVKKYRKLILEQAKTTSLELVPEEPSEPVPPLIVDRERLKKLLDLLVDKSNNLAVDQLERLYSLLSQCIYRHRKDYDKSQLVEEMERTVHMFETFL
The experiment in a line: Binding affinity to human partial length ATAD2B (Q955 to R1082 residues) expressed in bacterial expression system by BROMOscan assay.

The target of data set [4] is Bromodomain adjacent to zinc finger domain protein 2A (Homo sapiens, UniProt Q9UIF9). Description: Binding affinity to human partial length BAZ2A (M1792 to L1905 residues) expressed in bacterial expression system by BROMOscan assay.
The target in data set [5] is T2, Bromodomain and PHD finger-containing protein 3 (Homo sapiens, UniProt Q9ULD4).
T2 sequence (Q9ULD4 whole entry): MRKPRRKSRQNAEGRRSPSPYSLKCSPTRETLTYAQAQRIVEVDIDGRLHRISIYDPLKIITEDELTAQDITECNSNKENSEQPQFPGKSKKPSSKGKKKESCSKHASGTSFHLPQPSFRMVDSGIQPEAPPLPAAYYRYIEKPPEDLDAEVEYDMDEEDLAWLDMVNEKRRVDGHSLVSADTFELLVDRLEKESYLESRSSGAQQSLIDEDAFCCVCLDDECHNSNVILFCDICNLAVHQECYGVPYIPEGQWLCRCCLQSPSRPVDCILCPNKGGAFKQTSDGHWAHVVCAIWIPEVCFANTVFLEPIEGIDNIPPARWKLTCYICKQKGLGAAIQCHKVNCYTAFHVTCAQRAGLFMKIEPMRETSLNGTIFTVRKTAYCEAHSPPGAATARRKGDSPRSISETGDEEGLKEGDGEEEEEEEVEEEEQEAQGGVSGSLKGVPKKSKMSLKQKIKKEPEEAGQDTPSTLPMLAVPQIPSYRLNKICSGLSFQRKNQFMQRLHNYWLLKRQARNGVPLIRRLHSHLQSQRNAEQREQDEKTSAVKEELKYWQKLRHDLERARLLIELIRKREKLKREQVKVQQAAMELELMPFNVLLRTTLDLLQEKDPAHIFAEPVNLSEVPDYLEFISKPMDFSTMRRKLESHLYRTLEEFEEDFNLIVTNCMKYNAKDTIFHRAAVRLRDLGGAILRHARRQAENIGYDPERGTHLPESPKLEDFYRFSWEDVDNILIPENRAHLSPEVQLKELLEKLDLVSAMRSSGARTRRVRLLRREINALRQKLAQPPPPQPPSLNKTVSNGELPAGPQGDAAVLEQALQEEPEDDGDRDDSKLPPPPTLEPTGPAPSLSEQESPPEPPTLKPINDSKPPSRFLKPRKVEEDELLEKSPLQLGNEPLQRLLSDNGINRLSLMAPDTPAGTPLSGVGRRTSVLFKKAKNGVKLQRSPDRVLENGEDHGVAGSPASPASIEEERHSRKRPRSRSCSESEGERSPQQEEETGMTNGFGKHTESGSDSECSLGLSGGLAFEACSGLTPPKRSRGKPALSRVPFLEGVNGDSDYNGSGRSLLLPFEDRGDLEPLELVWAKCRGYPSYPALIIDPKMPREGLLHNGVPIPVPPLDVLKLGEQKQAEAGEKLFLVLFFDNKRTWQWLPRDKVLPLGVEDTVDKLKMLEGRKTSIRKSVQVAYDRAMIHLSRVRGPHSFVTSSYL
The experiment in a line: Binding affinity to human partial length BRPF3 (E588 to G701 residues) expressed in bacterial expression system by BROMOscan assay.

For data set [6], the target named is Chromatin remodeling regulator CECR2 (Homo sapiens, UniProt Q9BXF3). The experiment in a line: Inhibition of BSP-BODIPY binding to Nanoluc-tagged CECR2 (unknown origin) expressed in HEK293 cells measured after 4 to 6 hrs by NanoBRET assay. It counts as cell-based. On the technique in general: Bioluminescence resonance energy transfer reports proximity on the nanometre scale.
Sequence of Chromatin remodeling regulator CECR2 (Q9BXF3 whole entry): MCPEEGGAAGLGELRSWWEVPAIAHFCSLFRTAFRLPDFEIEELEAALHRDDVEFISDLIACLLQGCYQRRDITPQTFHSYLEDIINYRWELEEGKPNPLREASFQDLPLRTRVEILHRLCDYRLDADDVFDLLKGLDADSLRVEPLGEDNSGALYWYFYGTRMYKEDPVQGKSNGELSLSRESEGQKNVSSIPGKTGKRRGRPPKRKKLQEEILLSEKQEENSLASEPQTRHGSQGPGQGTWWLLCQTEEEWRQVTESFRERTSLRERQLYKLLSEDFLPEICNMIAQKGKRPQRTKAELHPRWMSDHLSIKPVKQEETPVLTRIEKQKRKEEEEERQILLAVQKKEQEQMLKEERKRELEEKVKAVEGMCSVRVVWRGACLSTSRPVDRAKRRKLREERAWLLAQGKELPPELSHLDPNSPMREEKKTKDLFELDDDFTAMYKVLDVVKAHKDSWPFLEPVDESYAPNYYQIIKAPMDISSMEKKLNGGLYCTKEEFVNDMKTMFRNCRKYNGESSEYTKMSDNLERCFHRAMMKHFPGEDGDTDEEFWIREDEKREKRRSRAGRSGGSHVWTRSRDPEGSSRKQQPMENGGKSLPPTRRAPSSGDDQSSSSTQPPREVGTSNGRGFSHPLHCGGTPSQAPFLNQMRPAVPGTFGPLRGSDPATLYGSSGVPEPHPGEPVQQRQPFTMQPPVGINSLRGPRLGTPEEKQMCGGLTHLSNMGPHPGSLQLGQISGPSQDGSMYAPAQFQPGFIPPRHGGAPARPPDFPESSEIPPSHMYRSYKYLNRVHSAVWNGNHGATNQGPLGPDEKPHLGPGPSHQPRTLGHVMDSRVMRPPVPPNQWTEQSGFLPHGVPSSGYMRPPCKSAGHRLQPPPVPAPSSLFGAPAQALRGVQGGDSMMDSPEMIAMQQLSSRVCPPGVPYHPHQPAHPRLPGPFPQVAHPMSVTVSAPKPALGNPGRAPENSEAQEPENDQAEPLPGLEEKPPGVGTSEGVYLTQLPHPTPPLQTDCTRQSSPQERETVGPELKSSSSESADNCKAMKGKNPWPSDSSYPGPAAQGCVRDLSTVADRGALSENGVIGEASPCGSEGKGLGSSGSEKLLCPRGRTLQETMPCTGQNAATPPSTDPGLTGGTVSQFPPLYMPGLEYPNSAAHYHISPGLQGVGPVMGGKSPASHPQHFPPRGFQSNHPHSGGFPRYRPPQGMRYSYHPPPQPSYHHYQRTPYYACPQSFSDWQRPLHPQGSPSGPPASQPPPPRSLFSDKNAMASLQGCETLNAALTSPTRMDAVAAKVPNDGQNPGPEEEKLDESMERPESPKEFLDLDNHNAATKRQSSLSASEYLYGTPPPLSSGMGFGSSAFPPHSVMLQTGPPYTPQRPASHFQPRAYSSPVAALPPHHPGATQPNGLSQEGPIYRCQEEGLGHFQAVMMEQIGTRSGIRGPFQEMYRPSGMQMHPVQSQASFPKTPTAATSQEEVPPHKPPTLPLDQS

Sequence of Bromodomain adjacent to zinc finger domain protein 2A (Q9UIF9 whole entry, the tested form may be a part): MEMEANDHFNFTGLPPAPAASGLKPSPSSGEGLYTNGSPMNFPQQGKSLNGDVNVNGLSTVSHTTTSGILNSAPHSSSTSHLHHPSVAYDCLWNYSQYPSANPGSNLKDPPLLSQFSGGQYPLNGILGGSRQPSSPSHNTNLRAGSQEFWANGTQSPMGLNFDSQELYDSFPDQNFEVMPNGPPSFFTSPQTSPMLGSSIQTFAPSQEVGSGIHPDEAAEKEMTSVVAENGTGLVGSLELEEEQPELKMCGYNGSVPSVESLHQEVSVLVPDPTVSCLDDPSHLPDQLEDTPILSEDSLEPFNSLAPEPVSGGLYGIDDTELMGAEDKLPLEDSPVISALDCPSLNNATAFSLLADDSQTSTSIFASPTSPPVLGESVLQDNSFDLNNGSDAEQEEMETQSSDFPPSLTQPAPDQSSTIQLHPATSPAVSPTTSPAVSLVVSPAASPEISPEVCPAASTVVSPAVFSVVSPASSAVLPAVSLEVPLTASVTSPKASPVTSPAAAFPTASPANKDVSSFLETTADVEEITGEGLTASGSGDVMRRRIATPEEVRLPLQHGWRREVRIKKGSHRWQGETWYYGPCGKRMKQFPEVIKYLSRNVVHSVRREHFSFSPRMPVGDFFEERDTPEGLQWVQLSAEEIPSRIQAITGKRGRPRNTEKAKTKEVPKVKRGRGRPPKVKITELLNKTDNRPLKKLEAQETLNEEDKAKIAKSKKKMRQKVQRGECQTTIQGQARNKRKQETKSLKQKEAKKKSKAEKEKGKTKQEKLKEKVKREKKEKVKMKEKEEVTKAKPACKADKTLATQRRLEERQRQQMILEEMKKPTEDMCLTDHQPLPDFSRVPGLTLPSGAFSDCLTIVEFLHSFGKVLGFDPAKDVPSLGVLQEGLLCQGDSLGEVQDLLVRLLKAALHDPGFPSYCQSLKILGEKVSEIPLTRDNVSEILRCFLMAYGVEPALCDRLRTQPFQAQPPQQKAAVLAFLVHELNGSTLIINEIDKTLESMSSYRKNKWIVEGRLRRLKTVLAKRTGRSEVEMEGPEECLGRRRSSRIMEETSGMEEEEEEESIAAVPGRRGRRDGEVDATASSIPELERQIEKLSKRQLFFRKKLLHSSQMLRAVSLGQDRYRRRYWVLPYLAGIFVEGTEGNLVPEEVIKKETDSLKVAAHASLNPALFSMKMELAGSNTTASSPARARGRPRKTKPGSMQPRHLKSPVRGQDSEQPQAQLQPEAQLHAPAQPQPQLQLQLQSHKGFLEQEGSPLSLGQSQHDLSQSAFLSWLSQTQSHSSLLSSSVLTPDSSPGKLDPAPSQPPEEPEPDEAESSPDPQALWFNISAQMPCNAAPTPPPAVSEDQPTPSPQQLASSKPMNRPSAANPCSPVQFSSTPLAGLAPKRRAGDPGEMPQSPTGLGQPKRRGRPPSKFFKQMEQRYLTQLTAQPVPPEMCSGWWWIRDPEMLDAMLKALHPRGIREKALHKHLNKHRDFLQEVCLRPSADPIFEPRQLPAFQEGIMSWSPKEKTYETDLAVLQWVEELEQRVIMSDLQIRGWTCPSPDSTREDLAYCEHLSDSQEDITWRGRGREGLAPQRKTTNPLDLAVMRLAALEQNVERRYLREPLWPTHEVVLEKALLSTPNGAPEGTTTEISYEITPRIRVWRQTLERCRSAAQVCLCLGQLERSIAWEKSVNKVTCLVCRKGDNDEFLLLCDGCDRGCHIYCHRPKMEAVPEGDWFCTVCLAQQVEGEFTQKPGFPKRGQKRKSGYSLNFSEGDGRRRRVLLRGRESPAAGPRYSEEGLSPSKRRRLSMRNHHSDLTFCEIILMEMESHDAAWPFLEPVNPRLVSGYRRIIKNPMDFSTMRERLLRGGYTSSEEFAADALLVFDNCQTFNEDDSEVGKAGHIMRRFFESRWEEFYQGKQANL

`C[C@H]1CCN(S(=O)(=O)c2cc(NC(=O)CN3C(=O)N[C@@](C)(C4CC4)C3=O)ccc2Br)C1`: the IC50 in data set [1] was over 50100 nM; in data set [6] it was 251 nM. Further, the Papp in data set [2] came out at 9.9 ×10⁻⁶ cm/s. The results for the Kd in data set [3], in data set [4] and in data set [5] were 20 nM, 15.8 nM and 126 nM, respectively.

The term IC50 denotes the concentration that gives 50% inhibition. Low values mean greater potency in that assay, high ones weaker potency in that assay. In general, Kd refers to the concentration at which binding is half-saturated. Higher therefore signals a looser complex.

The record behind these values is ChEMBL document CHEMBL4354881, “Optimization of Potent ATAD2 and CECR2 Bromodomain Inhibitors with an Atypical Binding Mode” (J Med Chem, 2020).
